Columns and labels:
Conditions in all cases: Compound concentration 1.0 uM
[1] = target: Protein kinase C alpha type (Homo sapiens) (UniProt P17252); test: % Activity remaining of PKC alpha in the Dundee kinase panel at 1.0 µM
[2] = target: Serine/threonine-protein kinase 26 (Homo sapiens) (UniProt Q9P289); test: % Activity remaining of MST4 in the Dundee kinase panel at 1.0 µM
[3] = target: Casein kinase II subunit alpha (Homo sapiens) (UniProt P68400); test: % Activity remaining of CK2 in the Dundee kinase panel at 1.0 µM
[4] = target: Tyrosine-protein kinase CSK (Homo sapiens) (UniProt P41240); test: % Activity remaining of CSK in the Dundee kinase panel at 1.0 µM
Sequence of Tyrosine-protein kinase CSK (Homo sapiens) (P41240 2-450 limits assumed): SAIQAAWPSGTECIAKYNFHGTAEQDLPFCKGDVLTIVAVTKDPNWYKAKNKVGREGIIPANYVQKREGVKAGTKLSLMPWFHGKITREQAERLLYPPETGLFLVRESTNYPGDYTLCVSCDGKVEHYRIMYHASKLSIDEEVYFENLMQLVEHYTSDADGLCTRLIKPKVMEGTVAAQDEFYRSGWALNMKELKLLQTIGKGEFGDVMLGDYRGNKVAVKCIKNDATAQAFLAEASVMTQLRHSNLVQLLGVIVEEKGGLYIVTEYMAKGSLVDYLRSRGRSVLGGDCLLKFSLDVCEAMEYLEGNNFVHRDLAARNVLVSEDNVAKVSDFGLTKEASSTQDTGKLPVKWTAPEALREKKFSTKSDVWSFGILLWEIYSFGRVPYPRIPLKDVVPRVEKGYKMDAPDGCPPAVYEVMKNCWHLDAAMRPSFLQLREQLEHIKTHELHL

[5] = target: Serine/threonine-protein kinase Nek6 (Homo sapiens) (UniProt Q9HC98); test: % Activity remaining of NEK6 in the Dundee kinase panel at 1.0 µM
[6] = target: Homeodomain-interacting protein kinase 1 (Homo sapiens) (UniProt Q86Z02); test: % Activity remaining of HIPK1 in the Dundee kinase panel at 1.0 µM
[7] = target: Serine/threonine-protein kinase pim-3 (Homo sapiens) (UniProt Q86V86); test: % Activity remaining of PIM3 in the Dundee kinase panel at 1.0 µM
[8] = target: Platelet-derived growth factor receptor alpha (Homo sapiens) (UniProt P16234); test: % Activity remaining of PDGFRA in the Dundee kinase panel at 1.0 µM
[9] = target: Aurora kinase B (Homo sapiens) (UniProt Q96GD4); test: % Activity remaining of Aurora B in the Dundee kinase panel at 1.0 µM
[10] = target: Serine/threonine-protein kinase Nek2 (Homo sapiens) (UniProt P51955); test: % Activity remaining of NEK2a in the Dundee kinase panel at 1.0 µM
[11] = target: Protein kinase C gamma type (Homo sapiens) (UniProt P05129); test: % Activity remaining of PKC gamma in the Dundee kinase panel at 1.0 µM
[12] = target: Ephrin type-B receptor 1 (Homo sapiens) (UniProt P54762); test: % Activity remaining of EPH-B1 in the Dundee kinase panel at 1.0 µM
[13] = target: High affinity nerve growth factor receptor (Homo sapiens) (UniProt P04629); test: % Activity remaining of TrkA in the Dundee kinase panel at 1.0 µM
[14] = target: Mitogen-activated protein kinase kinase kinase 5 (Homo sapiens) (UniProt Q99683); test: % Activity remaining of ASK1 in the Dundee kinase panel at 1.0 µM
Sequence of Mitogen-activated protein kinase kinase kinase 5 (Homo sapiens) (Q99683 whole entry): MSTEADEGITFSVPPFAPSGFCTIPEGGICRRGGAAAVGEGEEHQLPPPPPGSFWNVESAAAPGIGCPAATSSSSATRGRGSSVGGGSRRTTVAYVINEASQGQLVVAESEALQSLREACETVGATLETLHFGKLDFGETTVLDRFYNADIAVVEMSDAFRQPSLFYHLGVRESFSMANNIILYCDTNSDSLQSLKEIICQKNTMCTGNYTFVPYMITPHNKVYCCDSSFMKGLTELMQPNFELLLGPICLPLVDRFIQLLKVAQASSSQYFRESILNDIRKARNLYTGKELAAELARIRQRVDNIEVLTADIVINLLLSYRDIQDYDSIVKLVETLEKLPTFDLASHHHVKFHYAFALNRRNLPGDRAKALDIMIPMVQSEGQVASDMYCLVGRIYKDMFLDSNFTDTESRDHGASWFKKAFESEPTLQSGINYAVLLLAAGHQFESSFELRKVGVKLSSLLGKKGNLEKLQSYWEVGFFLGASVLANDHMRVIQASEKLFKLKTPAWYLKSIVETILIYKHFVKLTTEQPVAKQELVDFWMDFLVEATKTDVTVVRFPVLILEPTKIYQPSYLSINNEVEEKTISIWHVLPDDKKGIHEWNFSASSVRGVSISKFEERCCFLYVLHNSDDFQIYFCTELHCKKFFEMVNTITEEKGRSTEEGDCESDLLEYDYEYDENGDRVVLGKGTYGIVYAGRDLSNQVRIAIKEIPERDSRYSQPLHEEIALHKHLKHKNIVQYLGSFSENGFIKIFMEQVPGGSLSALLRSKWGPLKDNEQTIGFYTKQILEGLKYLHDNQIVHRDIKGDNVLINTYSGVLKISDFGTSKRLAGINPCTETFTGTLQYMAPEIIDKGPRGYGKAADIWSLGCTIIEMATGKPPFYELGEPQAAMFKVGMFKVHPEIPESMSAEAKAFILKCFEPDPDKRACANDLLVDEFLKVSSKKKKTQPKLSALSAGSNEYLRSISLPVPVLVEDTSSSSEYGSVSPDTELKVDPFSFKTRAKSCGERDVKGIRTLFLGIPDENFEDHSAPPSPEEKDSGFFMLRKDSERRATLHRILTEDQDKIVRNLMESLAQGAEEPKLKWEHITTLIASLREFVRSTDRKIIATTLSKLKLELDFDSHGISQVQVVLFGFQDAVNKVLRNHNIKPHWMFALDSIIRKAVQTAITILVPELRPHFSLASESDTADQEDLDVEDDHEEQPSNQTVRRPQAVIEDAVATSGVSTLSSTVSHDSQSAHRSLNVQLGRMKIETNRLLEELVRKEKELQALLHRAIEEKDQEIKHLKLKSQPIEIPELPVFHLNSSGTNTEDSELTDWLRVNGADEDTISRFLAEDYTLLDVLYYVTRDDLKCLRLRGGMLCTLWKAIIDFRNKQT

[15] = target: Serine/threonine-protein kinase 33 (Homo sapiens) (UniProt Q9BYT3); test: % Activity remaining of STK33 in the Dundee kinase panel at 1.0 µM
[16] = target: CDK9/cyclin T1 (Homo sapiens) (UniProt O60563+P50750); test: % Activity remaining of CDK9-Cyclin T1 in the Dundee kinase panel at 1.0 µM; format: protein-complex assay
[17] = target: RAC-beta serine/threonine-protein kinase (Homo sapiens) (UniProt P31751); test: % Activity remaining of PKB beta in the Dundee kinase panel at 1.0 µM
[18] = target: Serine/threonine-protein kinase PLK1 (Homo sapiens) (UniProt P53350); test: % Activity remaining of PLK1 in the Dundee kinase panel at 1.0 µM
[19] = target: Dual specificity tyrosine-phosphorylation-regulated kinase 1A (Homo sapiens) (UniProt Q13627); test: % Activity remaining of DYRK1A in the Dundee kinase panel at 1.0 µM
[20] = target: Tyrosine-protein kinase ABL1 (Homo sapiens) (UniProt P00519); test: % Activity remaining of ABL in the Dundee kinase panel at 1.0 µM
[21] = target: Insulin-like growth factor 1 receptor (Homo sapiens) (UniProt P08069); test: % Activity remaining of IGF-1R in the Dundee kinase panel at 1.0 µM
[22] = target: Discoidin domain-containing receptor 2 (Homo sapiens) (UniProt Q16832); test: % Activity remaining of DDR2 in the Dundee kinase panel at 1.0 µM
[23] = target: Serine/threonine-protein kinase pim-2 (Homo sapiens) (UniProt Q9P1W9); test: % Activity remaining of PIM2 in the Dundee kinase panel at 1.0 µM
[24] = target: Serine/threonine-protein kinase N2 (Homo sapiens) (UniProt Q16513); test: % Activity remaining of PRK2 in the Dundee kinase panel at 1.0 µM
[25] = target: Interleukin-1 receptor-associated kinase 1 (Homo sapiens) (UniProt P51617); test: % Activity remaining of IRAK1 in the Dundee kinase panel at 1.0 µM
Sequence of Interleukin-1 receptor-associated kinase 1 (Homo sapiens) (P51617 whole entry, looked up): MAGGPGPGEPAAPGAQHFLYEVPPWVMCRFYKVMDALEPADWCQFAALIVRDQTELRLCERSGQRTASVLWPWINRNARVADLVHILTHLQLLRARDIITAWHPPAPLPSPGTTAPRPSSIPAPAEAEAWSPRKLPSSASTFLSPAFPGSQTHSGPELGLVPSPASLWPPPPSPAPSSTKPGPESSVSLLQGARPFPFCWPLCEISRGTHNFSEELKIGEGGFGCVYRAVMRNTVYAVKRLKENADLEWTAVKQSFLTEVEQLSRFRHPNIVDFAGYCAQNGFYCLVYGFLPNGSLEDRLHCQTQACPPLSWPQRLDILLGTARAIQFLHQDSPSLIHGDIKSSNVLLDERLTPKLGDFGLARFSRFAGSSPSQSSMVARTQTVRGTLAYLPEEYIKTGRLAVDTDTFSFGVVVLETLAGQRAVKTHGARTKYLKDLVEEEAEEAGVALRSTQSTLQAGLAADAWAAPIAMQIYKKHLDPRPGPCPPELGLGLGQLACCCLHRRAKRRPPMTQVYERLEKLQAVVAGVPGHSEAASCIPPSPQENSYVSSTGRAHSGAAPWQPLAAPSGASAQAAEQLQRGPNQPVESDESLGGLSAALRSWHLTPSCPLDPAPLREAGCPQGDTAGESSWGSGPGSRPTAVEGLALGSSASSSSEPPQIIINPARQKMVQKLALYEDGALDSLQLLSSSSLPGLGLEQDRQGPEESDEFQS

[26] = target: Ephrin type-A receptor 2 (Homo sapiens) (UniProt P29317); test: % Activity remaining of EPH-A2 in the Dundee kinase panel at 1.0 µM
Sequence of Ephrin type-A receptor 2 (Homo sapiens) (P29317 whole entry): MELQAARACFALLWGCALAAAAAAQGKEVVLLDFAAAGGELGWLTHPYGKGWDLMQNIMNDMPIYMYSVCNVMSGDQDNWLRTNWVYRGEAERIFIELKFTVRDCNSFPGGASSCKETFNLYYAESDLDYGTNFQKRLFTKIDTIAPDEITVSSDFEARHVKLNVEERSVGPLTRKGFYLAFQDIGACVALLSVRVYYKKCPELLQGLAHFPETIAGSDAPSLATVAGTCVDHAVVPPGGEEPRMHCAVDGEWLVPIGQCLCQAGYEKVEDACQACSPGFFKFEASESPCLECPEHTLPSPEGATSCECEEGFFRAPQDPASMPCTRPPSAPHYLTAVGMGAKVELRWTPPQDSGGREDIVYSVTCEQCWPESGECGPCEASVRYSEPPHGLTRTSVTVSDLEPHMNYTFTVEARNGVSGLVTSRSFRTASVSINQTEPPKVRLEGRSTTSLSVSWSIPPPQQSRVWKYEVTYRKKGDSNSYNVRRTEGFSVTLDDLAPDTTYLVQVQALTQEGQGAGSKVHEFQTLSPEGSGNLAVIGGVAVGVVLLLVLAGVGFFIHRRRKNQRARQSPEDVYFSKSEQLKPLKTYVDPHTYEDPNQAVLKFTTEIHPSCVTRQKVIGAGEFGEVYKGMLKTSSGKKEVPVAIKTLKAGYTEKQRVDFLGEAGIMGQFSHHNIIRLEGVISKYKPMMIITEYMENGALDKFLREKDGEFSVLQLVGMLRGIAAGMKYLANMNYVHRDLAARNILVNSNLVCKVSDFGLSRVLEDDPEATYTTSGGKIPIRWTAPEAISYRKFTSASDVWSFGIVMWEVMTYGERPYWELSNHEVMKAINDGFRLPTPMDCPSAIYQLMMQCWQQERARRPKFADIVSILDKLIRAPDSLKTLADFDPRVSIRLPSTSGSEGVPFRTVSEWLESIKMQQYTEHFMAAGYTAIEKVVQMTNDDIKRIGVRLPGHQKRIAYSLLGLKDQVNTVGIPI

[27] = target: Ephrin type-A receptor 4 (Homo sapiens) (UniProt P54764); test: % Activity remaining of EPH-A4 in the Dundee kinase panel at 1.0 µM
[28] = target: Protein kinase C zeta type (Homo sapiens) (UniProt Q05513); test: % Activity remaining of PKC zeta in the Dundee kinase panel at 1.0 µM
[29] = target: Tyrosine-protein kinase BTK (Homo sapiens) (UniProt Q06187); test: % Activity remaining of BTK in the Dundee kinase panel at 1.0 µM
Sequence of Tyrosine-protein kinase BTK (Homo sapiens) (Q06187 whole entry): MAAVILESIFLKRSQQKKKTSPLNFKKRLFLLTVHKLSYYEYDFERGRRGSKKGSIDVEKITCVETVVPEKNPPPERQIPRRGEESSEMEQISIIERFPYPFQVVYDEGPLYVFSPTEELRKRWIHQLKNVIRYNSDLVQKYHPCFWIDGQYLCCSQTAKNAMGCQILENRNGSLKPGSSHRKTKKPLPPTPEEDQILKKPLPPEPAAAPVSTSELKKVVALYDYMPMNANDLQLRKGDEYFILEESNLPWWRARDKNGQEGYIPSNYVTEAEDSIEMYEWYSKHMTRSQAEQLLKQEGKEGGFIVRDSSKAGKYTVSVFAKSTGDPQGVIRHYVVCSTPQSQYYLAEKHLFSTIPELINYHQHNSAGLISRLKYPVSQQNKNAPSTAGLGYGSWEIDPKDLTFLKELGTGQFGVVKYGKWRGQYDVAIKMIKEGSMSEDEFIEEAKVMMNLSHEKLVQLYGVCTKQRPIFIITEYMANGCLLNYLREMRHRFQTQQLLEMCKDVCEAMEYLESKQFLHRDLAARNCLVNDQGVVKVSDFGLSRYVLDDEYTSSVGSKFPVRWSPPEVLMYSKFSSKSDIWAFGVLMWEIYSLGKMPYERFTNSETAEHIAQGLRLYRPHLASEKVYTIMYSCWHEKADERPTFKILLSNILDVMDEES

[30] = target: NUAK family SNF1-like kinase 1 (Homo sapiens) (UniProt O60285); test: % Activity remaining of NUAK1 in the Dundee kinase panel at 1.0 µM
[31] = target: Aurora kinase A (Homo sapiens) (UniProt O14965); test: % Activity remaining of Aurora A in the Dundee kinase panel at 1.0 µM
[32] = target: Vascular endothelial growth factor receptor 1 (Homo sapiens) (UniProt P17948); test: % Activity remaining of VEGFR1 in the Dundee kinase panel at 1.0 µM
[33] = target: Dual specificity protein kinase TTK (Homo sapiens) (UniProt P33981); test: % Activity remaining of TTK in the Dundee kinase panel at 1.0 µM
[34] = target: 5'-AMP-activated protein kinase catalytic subunit alpha-1 (Homo sapiens) (UniProt Q13131); test: % Activity remaining of AMPK (hum) in the Dundee kinase panel at 1.0 µM
[35] = target: Mitogen-activated protein kinase kinase kinase 7 (Homo sapiens) (UniProt O43318); test: % Activity remaining of TAK1 in the Dundee kinase panel at 1.0 µM
[36] = target: Mitogen-activated protein kinase 13 (Homo sapiens) (UniProt O15264); test: % Activity remaining of p38 delta MAPK in the Dundee kinase panel at 1.0 µM
Sequence of Mitogen-activated protein kinase 13 (Homo sapiens) (O15264 whole entry): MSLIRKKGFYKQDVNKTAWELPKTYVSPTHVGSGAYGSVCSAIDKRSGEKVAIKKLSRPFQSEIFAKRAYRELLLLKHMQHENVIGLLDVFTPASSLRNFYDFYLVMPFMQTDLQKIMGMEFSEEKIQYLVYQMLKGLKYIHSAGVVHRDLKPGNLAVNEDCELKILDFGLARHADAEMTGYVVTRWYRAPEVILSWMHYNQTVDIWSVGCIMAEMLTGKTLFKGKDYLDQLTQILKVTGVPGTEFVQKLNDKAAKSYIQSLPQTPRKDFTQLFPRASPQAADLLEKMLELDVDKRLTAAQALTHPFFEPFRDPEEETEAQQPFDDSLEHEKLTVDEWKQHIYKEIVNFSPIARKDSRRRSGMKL

[37] = target: Glycogen synthase kinase-3 beta (Homo sapiens) (UniProt P49841); test: % Activity remaining of GSK3 beta in the Dundee kinase panel at 1.0 µM
[38] = target: RAC-alpha serine/threonine-protein kinase (Homo sapiens) (UniProt P31749); test: % Activity remaining of PKB alpha in the Dundee kinase panel at 1.0 µM
[39] = target: MAP/microtubule affinity-regulating kinase 4 (Homo sapiens) (UniProt Q96L34); test: % Activity remaining of MARK4 in the Dundee kinase panel at 1.0 µM

Measured: % Activity remaining

Sequence of Serine/threonine-protein kinase 26 (Homo sapiens) (Q9P289 2-416 limits assumed): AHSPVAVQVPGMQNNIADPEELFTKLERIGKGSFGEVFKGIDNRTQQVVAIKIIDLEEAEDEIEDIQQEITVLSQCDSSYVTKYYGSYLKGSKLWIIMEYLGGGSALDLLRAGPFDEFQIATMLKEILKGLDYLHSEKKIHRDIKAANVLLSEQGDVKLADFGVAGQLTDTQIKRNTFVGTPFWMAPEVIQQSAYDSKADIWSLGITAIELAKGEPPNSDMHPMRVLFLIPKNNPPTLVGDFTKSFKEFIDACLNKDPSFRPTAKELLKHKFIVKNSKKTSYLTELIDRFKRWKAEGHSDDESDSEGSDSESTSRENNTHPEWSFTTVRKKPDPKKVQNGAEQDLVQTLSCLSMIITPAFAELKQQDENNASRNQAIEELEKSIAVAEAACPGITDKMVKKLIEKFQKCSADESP

Cc1ccc(F)c(S(=O)(=O)Nc2ccc(-c3nc(OC[C@H]4CN(CCCCCCOCCOCCOCC(=O)N[C@H](C(=O)N5C[C@@H](O)C[C@H]5C(=O)NCc5ccc(-c6scnc6C)cc5)C(C)(C)C)CCO4)c4cn[nH]c4n3)cc2)c1
inactive: [1] 118% | [2] 99% | [3] 96.4% | [4] 113% | [5] 111% | [6] 126% | [7] 88.8% | [8] 94.8% | [9] 94.7% | [10] 139% | [11] 99.9% | [12] 108% | [13] 102% | [14] 102% | [15] 109% | [16] 105% | [17] 101% | [18] 98.4% | [19] 99% | [20] 112% | [21] 93.2% | [22] 134% | [23] 105% | [24] 101% | [25] 105% | [26] 104% | [27] 89.4% | [28] 110% | [29] 90.6% | [30] 90% | [31] 91.4% | [32] 103% | [33] 99.4% | [34] 108% | [35] 107% | [36] 121% | [37] 106% | [38] 117% | [39] 100%

Cc1ccc(F)c(S(=O)(=O)Nc2ccc(-c3nc(OC[C@H]4CN(CCCCCCOCCOCCOCC(=O)N[C@H](C(=O)N5C[C@H](O)C[C@H]5C(=O)NCc5ccc(-c6scnc6C)cc5)C(C)(C)C)CCO4)c4cn[nH]c4n3)cc2)c1
inactive: [1] 121% | [2] 106% | [3] 90.2% | [4] 118% | [5] 106% | [6] 135% | [7] 88.1% | [8] 101% | [9] 92.5% | [10] 162% | [11] 103% | [12] 99.9% | [13] 112% | [14] 113% | [15] 110% | [16] 103% | [17] 98.7% | [18] 97.9% | [19] 105% | [20] 111% | [21] 82.4% | [22] 114% | [23] 98.2% | [24] 105% | [25] 98.3% | [26] 94.2% | [27] 106% | [28] 96.5% | [29] 96.9% | [30] 98% | [31] 90.3% | [32] 120% | [33] 89.4% | [34] 105% | [35] 108% | [36] 103% | [37] 108% | [38] 105% | [39] 105%
